Measured values from the NIST ThermoML archive (doi:10.1021/je049655w).

Assay: xn = mol fraction of the nth substance listed
Conditions: 100.8 kPa, Liquid

CCO [ethanol] + CC(C)CC(C)(C)C
x1 = 1
Conditions	mass density [kg/m3]	viscosity [mPa·s]
298.15 K	785.1	1.088
308.15 K	776.5	0.904
318.15 K	767.7	0.763

CC(C)CC(C)(C)C [2,2,4-trimethylpentane] + CCC(C)=O
x2 = 0
Conditions	mass density [kg/m3]	viscosity [mPa·s]
298.15 K	687.8	0.474
308.15 K	679.5	0.426
318.15 K	671	0.382

CCC(C)=O [butanone] + CCO
Conditions	mass density, 298.15 K [kg/m3]	mass density, 308.15 K [kg/m3]	mass density, 318.15 K [kg/m3]	viscosity, 298.15 K [mPa·s]	viscosity, 308.15 K [mPa·s]	viscosity, 318.15 K [mPa·s]
x2 = 0	799.7	789.2	778.4	0.378	0.341	0.307
x2 = 0.05	799.3	788.8	778	0.38	0.345	0.313
x2 = 0.1	798.9	788.3	777.6	0.386	0.349	0.316
x2 = 0.15	798.4	787.9	777.2	0.393	0.353	0.32
x2 = 0.2	797.9	787.4	776.8	0.4	0.359	0.324
x2 = 0.25	797.4	787	776.4	0.409	0.366	0.33
x2 = 0.3	796.9	786.5	776	0.42	0.376	0.337
x2 = 0.35	796.4	786.1	775.6	0.431	0.387	0.345
x2 = 0.4	795.8	785.6	775.2	0.446	0.397	0.355
x2 = 0.45	795.2	785.1	774.7	0.469	0.412	0.365
x2 = 0.5	794.6	784.6	774.3	0.49	0.426	0.381
x2 = 0.55	794	784	773.8	0.512	0.443	0.398
x2 = 0.6	793.3	783.4	773.3	0.539	0.467	0.412
x2 = 0.65	792.6	782.8	772.8	0.576	0.493	0.434
x2 = 0.7	791.8	782.1	772.2	0.618	0.526	0.456
x2 = 0.75	790.9	781.4	771.6	0.673	0.56	0.482
x2 = 0.8	790	780.6	771	0.734	0.601	0.519
x2 = 0.85	788.9	779.7	770.3	0.799	0.654	0.56
x2 = 0.9	787.8	778.7	769.5	0.869	0.722	0.613
x2 = 0.95	786.6	777.7	768.6	0.961	0.803	0.676

CC(C)CC(C)(C)C [2,2,4-trimethylpentane] + CCO
Conditions	mass density, 298.15 K [kg/m3]	mass density, 308.15 K [kg/m3]	mass density, 318.15 K [kg/m3]	viscosity, 298.15 K [mPa·s]	viscosity, 308.15 K [mPa·s]	viscosity, 318.15 K [mPa·s]
x2 = 0	687.8	679.5	671	0.474	0.422	0.382
x2 = 0.05	688.8	680.4	671.7	0.476	0.424	0.384
x2 = 0.1	690.3	681.8	673	0.478	0.426	0.385
x2 = 0.15	692.1	683.5	674.7	0.48	0.429	0.389
x2 = 0.2	694	685.4	676.5	0.484	0.433	0.391
x2 = 0.25	696.2	687.5	678.6	0.494	0.439	0.397
x2 = 0.3	698.5	689.8	680.9	0.507	0.45	0.404
x2 = 0.35	701.1	692.4	683.4	0.521	0.462	0.412
x2 = 0.4	704	695.2	686.2	0.54	0.474	0.422
x2 = 0.45	707.1	698.3	689.3	0.561	0.487	0.433
x2 = 0.5	710.6	701.8	692.8	0.586	0.506	0.446
x2 = 0.55	714.5	705.7	696.6	0.613	0.527	0.463
x2 = 0.6	718.8	710	700.9	0.643	0.55	0.48
x2 = 0.65	723.6	714.9	705.8	0.678	0.576	0.5
x2 = 0.7	729.1	720.3	711.3	0.718	0.606	0.524
x2 = 0.75	735.4	726.6	717.6	0.76	0.641	0.55
x2 = 0.8	742.3	733.6	724.7	0.806	0.677	0.58
x2 = 0.85	750.5	741.7	732.9	0.861	0.72	0.616
x2 = 0.9	760.1	751.4	742.5	0.929	0.768	0.657
x2 = 0.95	771.5	762.8	753.9	0.999	0.829	0.702
